For four molecules, IC50 results are on record in ChEMBL document CHEMBL1126438, “DNA alkylation properties of the duocarmycins: (+)-duocarmycin A, epi-(+)-duocarmycin A, ent-()-duocarmycin A and epi,ent-()-duocarmycin A” (Bioorg Med Chem Lett, 1992).

Assay [1] relates to P388. The assay is described as follows: In vitro evaluation for cytotoxicity against P388 murine leukemia cell line. The class given is functional, cell-based, Mus musculus.
Assay [2] deals with B16. The assay is described as follows: In vitro evaluation for cytotoxicity against B16 melanoma. The class given is functional, cell-based. The note with it: Mus musculus.
The subject of assay [3] is L1210. The assay is described as follows: In vitro evaluation for cytotoxicity against L1210 cell line. Type of assay: functional, cell-based. The note with it: Mus musculus.
Setting [4] is: Mus musculus, P388, read-out: IC50.

≈ marks a conversion by molar mass, not a printed value.

One may read the IC50 as the point on the concentration scale where inhibition reaches its midpoint. With `COC(=O)[C@]1(C)N=C2C(=O)C=C3N(C(=O)c4cc5cc(OC)c(OC)c(OC)c5[nH]4)C[C@H]4C[C@@]34C2=C1O`, the figures for the half-maximal inhibitory concentration (IC50) in assay [1] (p388), in assay [2] and in assay [3] were 0.002 ng/mL (≈ 0.00394 nM), 0.2 ng/mL (≈ 0.394 nM) and 0.1 ng/mL (≈ 0.197 nM), respectively.

On to `COC(=O)[C@@]1(C)N=C2C(=O)C=C3N(C(=O)c4cc5cc(OC)c(OC)c(OC)c5[nH]4)C[C@H]4C[C@@]34C2=C1O`, for which the half-maximal inhibitory concentration (IC50) was found to be 0.007 ng/mL (≈ 0.0138 nM) in assay [1] (setting [4]), 0.8 ng/mL (≈ 1.58 nM) in assay [2] and 0.8 ng/mL (≈ 1.58 nM) in assay [3].

Take `COC(=O)[C@]1(C)N=C2C(=O)C=C3N(C(=O)c4cc5cc(OC)c(OC)c(OC)c5[nH]4)C[C@@H]4C[C@]34C2=C1O`: the half-maximal inhibitory concentration (IC50) in assay [1] (setting [4]) was not below 0.3 ng/mL; in assay [2] it was more than 3 ng/mL; in assay [3] it was more than 12 ng/mL.

For `COC(=O)[C@@]1(C)N=C2C(=O)C=C3N(C(=O)c4cc5cc(OC)c(OC)c(OC)c5[nH]4)C[C@@H]4C[C@]34C2=C1O`, the IC50 in assay [1] (setting [4]) is not below 0.3 ng/mL; in assay [2], more than 3 ng/mL; in assay [3], more than 11 ng/mL.
